According to patent publication US8604053B2, “TRPV1 antagonists” (AbbVie Inc., priority 2008, dated 2013):

Target: T1, human TRPV1 (Homo sapiens, UniProt Q8NER1)
T1 construct: expressed in transfected cells; host or cells: HEK293-F cells, transient transfection
Test: Acid activation assay, ratiometric calcium imaging
Assay type: cell-based
Conditions: HEK293-F cells expressing human TRPV1, Example 56 at 3 μM; for block of TRPV1-mediated increase in intracellular calcium concentration in response to pH 5.5: acid pH 5.5; for block of TRPV1-mediated increase in intracellular calcium concentration in response to capsaicin: capsaicin 1 μM
Procedure: The differential effects of TRPV1 antagonists on capsaicin- or acid-induced responses were verified by ratiometric calcium imaging. Transiently transfected HEK293-F cells expressing human TRPV1 were incubated with 5 μM Fura-2AM for 30 minutes at 37° C. Intracellular calcium concentration was measured on an imaging system consisting of the X-Cite™ 120 Fluorescence Illumination System (EXFO) and a Digital Camera (C4742-95, Hamamatsu Photonics) connected to an Olympus 1×71 microscope. Through the control of Slide Book 4.2 software, fluorescence was measured during excitation at 340 and 380 nm; the ratio of the fluorescence at both excitation wavelengths (F340/F380) was monitored. D-PBS, pH 7.4 (Invitrogen, catalog no. 14287) was used as the extracellular solution. Acidic buffer was prepared by titrating D-PBS, pH 7.4 with 7 N HCl to pH 5.5. Agonists and antagonists were prepared in the pH 7.4 or 5.5 solutions. Rapid solution switch was achieved by using a ValveLink system.
Over the time 1250-second course, the cells were challenged sequentially with solutions containing Example 56 (3 μM), Example 56 (3 μM) plus capsaicin (1 μM), Example 56 (3 μM) plus acid (pH 5.5), or acid (pH 5.5) alone. The black bars above the traces designate addition and duration of solution applications. Spaces between horizontal bars represent periods in which cells were perfused with D-PBS, pH 7.4 alone. […]

T1 sequence (Q8NER1 whole entry): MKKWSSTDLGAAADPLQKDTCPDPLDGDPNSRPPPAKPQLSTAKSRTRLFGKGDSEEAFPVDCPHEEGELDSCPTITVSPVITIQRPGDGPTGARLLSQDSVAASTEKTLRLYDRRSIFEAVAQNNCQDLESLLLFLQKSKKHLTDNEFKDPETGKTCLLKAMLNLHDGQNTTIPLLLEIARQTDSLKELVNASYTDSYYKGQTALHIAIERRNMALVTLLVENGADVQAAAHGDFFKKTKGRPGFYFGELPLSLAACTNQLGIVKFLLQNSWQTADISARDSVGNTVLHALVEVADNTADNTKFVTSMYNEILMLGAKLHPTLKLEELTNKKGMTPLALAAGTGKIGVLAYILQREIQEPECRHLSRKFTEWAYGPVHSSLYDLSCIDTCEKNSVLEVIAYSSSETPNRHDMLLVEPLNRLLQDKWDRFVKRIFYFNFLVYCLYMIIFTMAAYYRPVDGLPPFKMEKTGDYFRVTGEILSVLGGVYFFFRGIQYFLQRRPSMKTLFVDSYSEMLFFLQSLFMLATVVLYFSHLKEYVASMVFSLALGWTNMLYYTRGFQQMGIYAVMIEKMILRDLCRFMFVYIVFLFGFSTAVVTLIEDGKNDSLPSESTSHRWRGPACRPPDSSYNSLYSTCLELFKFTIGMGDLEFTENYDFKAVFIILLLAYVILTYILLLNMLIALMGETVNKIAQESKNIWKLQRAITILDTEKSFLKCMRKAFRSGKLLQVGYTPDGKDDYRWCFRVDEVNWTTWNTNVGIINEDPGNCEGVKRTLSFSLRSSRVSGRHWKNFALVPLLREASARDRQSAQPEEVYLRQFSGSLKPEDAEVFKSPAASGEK

Substance: N-[(4R)-2,2-diethyl-6-fluoro-3,4-dihydro-2H-chromen-4-yl]-N-(3-methylisoquinolin-5-yl)urea [Example 56]
- block of TRPV1-mediated increase in intracellular calcium concentration in response to pH 5.5: did not completely block
- block of TRPV1-mediated increase in intracellular calcium concentration in response to capsaicin: completely blocked

Substance: N-[(4R)-2,2-diethyl-8-fluoro-3,4-dihydro-2H-chromen-4-yl]-N-(3-methylisoquinolin-5-yl)urea [Example 62]
- block of TRPV1-mediated increase in intracellular calcium concentration in response to pH 5.5: did not completely block
- block of TRPV1-mediated increase in intracellular calcium concentration in response to capsaicin: completely blocked
